These results are taken from ChEMBL document CHEMBL5096235, “In Silico Exploration and Biological Evaluation of Bispecific Peptides Derived from Anti-HER2 Antibodies and Peptide-Camptothecin Conjugates for HER2-Positive Breast Cancer” (J Med Chem, 2022).

Calls of active or inactive are those of the source. The calls are words filed in the database; no cut-off is given here. Residues, ends and D or L forms follow the SMILES beside them.

Series [1] in a line: Drug uptake in tumor of nude mouse xenografted with HER2-positive human SK-BR-3 cells assessed as increase in fluorescence intensity at 25 uM, iv measured after 2 hrs by IVIS spectrum in vivo imaging analysis. The class given is ADME, organism-based, Neoplasm.
A short description of series [2]: Metabolic stability in Sprague-Dawley rat plasma assessed as half life incubated for 120 mins by LC-MS/MS analysis. The class given is ADME, cell-free.
The nature of series [3]: Metabolic stability in Sprague-Dawley rat plasma assessed as drug degradation incubated for 120 mins by LC-MS/MS analysis. The class given is ADME, cell-free. As to conditions: 2 h.
The target of series [4] is T1, Receptor tyrosine-protein kinase erbB-2 (Homo sapiens, UniProt P04626). Kind of series: Binding affinity to recombinant HER2 (unknown origin) assessed as dissociation constant by SPR analysis. On the technique in general: SPR reads the build-up and loss of mass on a sensor chip optically.
T1 sequence (P04626 whole entry): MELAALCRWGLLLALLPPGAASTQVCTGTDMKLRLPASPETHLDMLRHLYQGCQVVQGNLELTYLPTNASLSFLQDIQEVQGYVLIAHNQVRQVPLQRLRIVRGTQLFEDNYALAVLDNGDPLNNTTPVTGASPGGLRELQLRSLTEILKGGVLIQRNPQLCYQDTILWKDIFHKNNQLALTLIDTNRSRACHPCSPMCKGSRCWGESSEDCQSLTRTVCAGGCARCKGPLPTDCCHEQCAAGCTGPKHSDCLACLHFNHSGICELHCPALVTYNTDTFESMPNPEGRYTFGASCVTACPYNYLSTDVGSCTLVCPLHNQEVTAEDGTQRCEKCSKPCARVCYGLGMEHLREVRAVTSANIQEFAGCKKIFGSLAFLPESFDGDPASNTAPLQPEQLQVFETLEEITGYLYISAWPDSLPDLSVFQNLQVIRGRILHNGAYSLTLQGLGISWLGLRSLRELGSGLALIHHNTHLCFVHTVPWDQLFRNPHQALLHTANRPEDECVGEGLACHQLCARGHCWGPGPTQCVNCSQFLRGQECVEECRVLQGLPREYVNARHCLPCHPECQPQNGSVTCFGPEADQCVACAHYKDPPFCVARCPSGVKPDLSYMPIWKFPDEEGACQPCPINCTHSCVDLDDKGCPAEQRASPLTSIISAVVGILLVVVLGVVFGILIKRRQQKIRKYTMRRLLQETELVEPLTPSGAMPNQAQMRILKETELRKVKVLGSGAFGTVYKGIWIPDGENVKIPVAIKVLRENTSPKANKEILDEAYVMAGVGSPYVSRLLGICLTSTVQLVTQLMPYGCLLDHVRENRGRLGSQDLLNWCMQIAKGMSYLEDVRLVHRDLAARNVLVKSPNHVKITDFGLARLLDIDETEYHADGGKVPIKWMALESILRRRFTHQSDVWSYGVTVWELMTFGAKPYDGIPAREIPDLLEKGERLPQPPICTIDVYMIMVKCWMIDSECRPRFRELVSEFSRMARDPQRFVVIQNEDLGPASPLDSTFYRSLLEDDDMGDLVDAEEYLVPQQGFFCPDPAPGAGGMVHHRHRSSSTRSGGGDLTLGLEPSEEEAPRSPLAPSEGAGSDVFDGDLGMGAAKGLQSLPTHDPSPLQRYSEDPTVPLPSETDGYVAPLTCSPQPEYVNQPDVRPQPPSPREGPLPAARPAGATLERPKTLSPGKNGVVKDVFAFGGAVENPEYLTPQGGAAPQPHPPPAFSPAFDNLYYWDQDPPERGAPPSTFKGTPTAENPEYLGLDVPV
The target of series [5] is T1, Receptor tyrosine-protein kinase erbB-2. Nature of the series: Binding affinity to HER2 in HER-positive human SK-BR-3 cells assessed as increase in fluorescence intensity at 25 uM by Hoechst 33342 staining based confocal microscopic analysis. The class given is cell-based.
Series [6] deals with SK-BR-3. Nature of the series: Cytotoxicity against HER-positive human SK-BR-3 cells assessed as inhibition of cell growth incubated for 48 hrs by MTT assay. The class given is functional, cell-based. The conditions noted are these: SK-BR-3, 48 h. Background: Formazan colour is commonly taken as a measure of viable cells.
Series [7] deals with SK-BR-3. Nature of the series: Induction of apoptosis in human SK-BR-3 cells assessed as late apoptotic cells incubated for 24 hrs by Annexin V-FITC/PI staining based flow cytometry analysis (Rvb= 5.02%). The class given is functional.
In series [8] the test system is SK-OV-3. Nature of the series: Cytotoxicity against HER-positive human SK-OV-3 cells assessed as inhibition of cell growth incubated for 48 hrs by MTT assay. As to conditions: SK-OV-3, 48 h. The class given is functional, cell-based.
Series [9] is described as follows: Toxicity in nude mouse xenografted with human SK-BR-3 cells assessed as effect on albumin level at 8 micromol/kg, iv administered every 3 days for 14 days. The class given is organism-based. As to conditions: in vivo, 336 h, dose 8 µmol/kg, time 14 day.
The nature of series [10]: Toxicity in nude mouse xenografted with human SK-BR-3 cells assessed as kidney damage at 8 micromol/kg, iv administered every 3 days for 14 days by H and E staining based analysis. The class given is organism-based. The conditions noted are these: in vivo, 336 h, dose 8 µmol/kg, time 14 day. In general terms: A xenograft is tissue or cells of one species grown in another, often human tumour cells in immunodeficient mice.

Series [11] relates to SK-BR-3. Kind of series: Induction of apoptosis in human SK-BR-3 cells assessed as live cells incubated for 24 hrs by Annexin V-FITC/PI staining based flow cytometry analysis (Rvb= 89.4%). The class given is functional.
The nature of series [12]: Cytotoxicity against human MCF-10A cells assessed as inhibition of cell growth incubated for 48 hrs by MTT assay. The class given is toxicity, cell-based.
Series [13] is described as follows: Toxicity in nude mouse xenografted with human SK-BR-3 cells assessed as cellular necrosis at 8 micromol/kg, iv administered every 3 days for 14 days by H and E staining based analysis. The class given is organism-based. The conditions noted are these: in vivo, 336 h, dose 8 µmol/kg, time 14 day.
For series [14], the system named is SK-BR-3. Kind of series: Induction of apoptosis in human SK-BR-3 cells assessed as early apoptotic cells incubated for 24 hrs by Annexin V-FITC/PI staining based flow cytometry analysis (Rvb= 4.37%). The class given is functional.
Series [15] is described as follows: Toxicity in nude mouse xenografted with human SK-BR-3 cells assessed as effect on creatinine level at 8 micromol/kg, iv administered every 3 days for 14 days. The conditions noted are these: in vivo, 336 h, dose 8 µmol/kg, time 14 day. The class given is organism-based.
A short description of series [16]: Toxicity in nude mouse xenografted with human SK-BR-3 cells assessed as effect on total protein level at 8 micromol/kg, iv administered every 3 days for 14 days. The class given is organism-based. As to conditions: in vivo, 336 h, dose 8 µmol/kg, time 14 day.
Series [17] can be described thus: Toxicity in nude mouse xenografted with human SK-BR-3 cells assessed as liver damage at 8 micromol/kg, iv administered every 3 days for 14 days by H and E staining based analysis. As to conditions: in vivo, 336 h, dose 8 µmol/kg, time 14 day. The class given is organism-based.
In series [18] the test system is SK-BR-3. Nature of the series: Induction of apoptosis in human SK-BR-3 cells assessed as dead cells incubated for 24 hrs by Annexin V-FITC/PI staining based flow cytometry analysis (Rvb= 1.21%). The class given is functional.
A short description of series [19]: Toxicity in nude mouse xenografted with human SK-BR-3 cells assessed as heart damage at 8 micromol/kg, iv administered every 3 days for 14 days by H and E staining based analysis. The class given is organism-based. The conditions noted are these: in vivo, 336 h, dose 8 µmol/kg, time 14 day.
Series [20] relates to NCI-N87. Kind of series: Cytotoxicity against HER-positive human NCI-N87 cells assessed as inhibition of cell growth incubated for 48 hrs by MTT assay. As to conditions: NCI-N87, 48 h. The class given is functional, cell-based.
Series [21] relates to SK-BR-3. Kind of series: Induction of cell cycle arrest in human SK-BR-3 cells assessed as accumulation of cells at S phase incubated for 24 hrs by flow cytometry analysis (reference value: 23%). The class given is functional.
Series [22] can be described thus: Toxicity in nude mouse xenografted with human SK-BR-3 cells assessed as inflammatory cell infiltration at 8 micromol/kg, iv administered every 3 days for 14 days by H and E staining based analysis. The class given is organism-based. The conditions noted are these: in vivo, 336 h, dose 8 µmol/kg, time 14 day.
The nature of series [23]: Toxicity in nude mouse xenografted with human SK-BR-3 cells assessed as spleen damage at 8 micromol/kg, iv administered every 3 days for 14 days by H and E staining based analysis. The class given is organism-based. The conditions noted are these: in vivo, 336 h, dose 8 µmol/kg, time 14 day.
In series [24] the test system is MDA-MB-231. Kind of series: Cytotoxicity against HER-negative human MDA-MB-231 cells assessed as inhibition of cell growth incubated for 48 hrs by MTT assay. The conditions noted are these: MDA-MB-231, 48 h. The class given is functional, cell-based.
Series [25] can be described thus: Toxicity in nude mouse xenografted with human SK-BR-3 cells assessed as lung damage at 8 micromol/kg, iv administered every 3 days for 14 days by H and E staining based analysis. The class given is organism-based. As to conditions: in vivo, 336 h, dose 8 µmol/kg, time 14 day.
A short description of series [26]: Toxicity in nude mouse xenografted with human SK-BR-3 cells assessed as effect on alkaline phosphatase level at 8 micromol/kg, iv administered every 3 days for 14 days. The class given is organism-based. The conditions noted are these: in vivo, 336 h, dose 8 µmol/kg, time 14 day.
A short description of series [27]: Toxicity in nude mouse xenografted with human SK-BR-3 cells assessed as effect on globulin level at 8 micromol/kg, iv administered every 3 days for 14 days. The class given is organism-based. The conditions noted are these: in vivo, 336 h, dose 8 µmol/kg, time 14 day.

In the case of `CC[C@H](C)[C@H](NC(=O)[C@H](CCCNC(=N)N)NC(=O)CNC(=O)[C@H](CS)NC(=O)CNC(=O)[C@H](CCCCN)NC(=O)[C@H](Cc1ccccc1)NC(=O)[C@H](CCCNC(=N)N)NC(=O)[C@H](CCC(N)=O)NC(=O)[C@H](CC(N)=O)NC(=O)[C@H](Cc1ccc(O)cc1)NC(=O)[C@H](Cc1c[nH]c2ccccc12)NC(=O)[C@H](CO)NC(=O)[C@H](CCCNC(=N)N)NC(=O)CNC(=O)[C@H](Cc1c[nH]c2ccccc12)NC(=O)[C@H](CC(N)=O)NC(=O)[C@@H]1CCCN1C(=O)[C@@H](N)CC(=O)NC(=S)Nc1ccc2c(c1)C(=O)OC21c2ccc(O)cc2Oc2cc(O)ccc21)C(=O)N[C@@H](CCCCN)C(=O)N1CCC[C@H]1C(=O)N[C@@H](CCCNC(=N)N)C(=O)N[C@@H](CCCCN)C(=O)NCC(=O)N[C@@H](Cc1ccc(O)cc1)C(=O)N[C@H](C(=O)N[C@@H](CCCNC(=N)N)C(N)=O)[C@@H](C)O`, the Drug uptake result in [1] is on record as “Active”.
On to `CC[C@H](C)[C@H](NC(=O)[C@H](CCCNC(=N)N)NC(=O)CNC(=O)[C@H](CS)NC(=O)CNC(=O)[C@H](CS)NC(=O)CNC(=O)[C@H](CCCCN)NC(=O)[C@H](Cc1ccccc1)NC(=O)[C@H](CCCNC(=N)N)NC(=O)[C@H](CCC(N)=O)NC(=O)[C@H](CC(N)=O)NC(=O)[C@H](Cc1ccc(O)cc1)NC(=O)[C@H](Cc1c[nH]c2ccccc12)NC(=O)[C@H](CO)NC(=O)[C@H](CCCNC(=N)N)NC(=O)CNC(=O)[C@H](Cc1c[nH]c2ccccc12)NC(=O)[C@H](CC(N)=O)NC(=O)[C@@H]1CCCN1C(=O)[C@@H](N)CC(N)=O)C(=O)N[C@@H](CCCCN)C(=O)N1CCC[C@H]1C(=O)N[C@@H](CCCNC(=N)N)C(=O)N[C@@H](CCCCN)C(=O)NCC(=O)N[C@@H](Cc1ccc(O)cc1)C(=O)N[C@H](C(=O)N[C@@H](CCCNC(=N)N)C(=O)O)[C@@H](C)O` (H-NPNWGRSWYNQRFKGCGCGRIKPRKGYTR-OH), for which the half-life (as a rule, how long it takes for the measured level to halve) in series [2] is 15 min. Moreover, in [3], the Stability result is reported as “Unstable”. In addition, the Kd (in general, the concentration at which binding is half-saturated) in series [4] was found to be 0.385 µM.
The like results for `CC[C@H](C)[C@H](NC(=O)[C@H](CCCNC(=N)N)NC(=O)CNC(=O)[C@H](CS)NC(=O)CNC(=O)[C@H](CCCCN)NC(=O)[C@H](Cc1ccccc1)NC(=O)[C@H](CCCNC(=N)N)NC(=O)[C@H](CCC(N)=O)NC(=O)[C@H](CC(N)=O)NC(=O)[C@H](Cc1ccc(O)cc1)NC(=O)[C@H](Cc1c[nH]c2ccccc12)NC(=O)[C@H](CO)NC(=O)[C@H](CCCNC(=N)N)NC(=O)CNC(=O)[C@H](Cc1c[nH]c2ccccc12)NC(=O)[C@H](CC(N)=O)NC(=O)[C@@H]1CCCN1C(=O)[C@@H](N)CC(N)=O)C(=O)N[C@@H](CCCCN)C(=O)N1CCC[C@H]1C(=O)N[C@@H](CCCNC(=N)N)C(=O)N[C@@H](CCCCN)C(=O)NCC(=O)N[C@@H](Cc1ccc(O)cc1)C(=O)N[C@H](C(=O)N[C@@H](CCCNC(=N)N)C(=O)O)[C@@H](C)O` (H-NPNWGRSWYNQRFKGCGRIKPRKGYTR-OH) were, in that order, 15 min, “Unstable” and 0.151 µM.
For the compound `CC[C@H](C)[C@H](NC(=O)[C@H](CCCNC(=N)N)NC(=O)CNC(=O)[C@H](CS)NC(=O)CNC(=O)[C@H](CCCCN)NC(=O)[C@H](Cc1ccccc1)NC(=O)[C@H](CCCNC(=N)N)NC(=O)[C@H](CCC(N)=O)NC(=O)[C@H](CC(N)=O)NC(=O)[C@H](Cc1ccc(O)cc1)NC(=O)[C@H](Cc1c[nH]c2ccccc12)NC(=O)[C@H](CO)NC(=O)[C@H](CCCNC(=N)N)NC(=O)CNC(=O)[C@H](Cc1c[nH]c2ccccc12)NC(=O)[C@H](CC(N)=O)NC(=O)[C@@H]1CCCN1C(=O)[C@@H](N)CC(=O)NC(=S)Nc1ccc2c(c1)C(=O)OC21c2ccc(O)cc2Oc2cc(O)ccc21)C(=O)N[C@@H](CCCCN)C(=O)N1CCC[C@H]1C(=O)N[C@@H](CCCNC(=N)N)C(=O)N[C@@H](CCCCN)C(=O)NCC(=O)N[C@@H](Cc1ccc(O)cc1)C(=O)N[C@H](C(=O)N[C@@H](CCCNC(=N)N)C(=O)O)[C@@H](C)O` (HELM PEPTIDE1{D.P.N.W.G.R.S.W.Y.N.Q.R.F.K.G.C.G.R.I.K.P.R.K.G.Y.T.R}|CHEM1{[O=C1OC2(c3ccc(O)cc3Oc3cc(O)ccc32)c2ccc(NC(=S)N[*:1])cc21]}$PEPTIDE1,CHEM1,1:R3-1:R1$$$V2.0), in series [1], the Drug uptake result is “Active”. Besides, in [5], the result was Active.
Regarding `CC[C@@]1(O)C(=O)OCc2c1cc1n(c2=O)Cc2cc3ccccc3nc2-1` [CAMPTOTHECIN], the half-maximal inhibitory concentration (IC50) (in general, the concentration at which inhibition is half-maximal) was found to be 0.21 µM in series [6], 3.82 µM in series [8], 2.32 µM in series [20] and 1.06 µM in series [24]. Moreover, the Activity is recorded as 12.3% in [7]; “Non-Toxic” in [9]; “Non-Toxic” in series [10]; 48.8% in [11]; “Non-Toxic” in [13]; 38.6% in [14]. Also, the Activity result in series [15] was “Non-Toxic”; in series [16], “Non-Toxic”; in series [17], “Non-Toxic”; in series [18] it was 0.35%; in series [19] it was “Non-Toxic”; in series [21] it was 50.8%. For the same compound, the Activity entry in [22], in series [23], in [25], in series [26] and in [27] was “Non-Toxic” in each case. Besides, in [12], the half-maximal inhibitory concentration (IC50) at 48 h stood at 2.58 µM.
